Laboratory results: the NIST ThermoML archive (doi:10.1021/je060204g)

Settings: 101 kPa, Liquid mixture 1, Drop weight

Cc1ccccc1 [toluene] + O
Settings	interfacial tension [mN/m]
293.15 K	37.1
298.15 K	36.1
303.15 K	35.5
308.15 K	35.1
313.15 K	34.7
323.15 K	34.3
